The values that follow come from patent US20090030067A1, “Anti-proliferative combination therapy comprising satraplatin or jm118 and a taxane” ((GPC Biotech AG), priority 2005, published 2009).

Data set [1] concerns human H460 non small cell lung cancer (NSCLC) cell line. Kind of data set: H460 xenograft model, satraplatin and paclitaxel.
Data set [2] relates to human non small cell lung cancer (NSCLC) cell line H460. Kind of data set: H460 xenograft model, satraplatin and docetaxel.
The next data set has as its system A129. Kind of data set: SRB cytotoxicity assay, parental A129 cell line. The settings on record: 48 hours, mean and standard deviation. It counts as cell-based. (The SRB assay estimates cell density from bound dye.)
The next data set concerns A129 cp80. Kind of data set: SRB cytotoxicity assay, cisplatin-resistant A129 cp80 cell line. It counts as cell-based. On the procedure: The parental non-mutated cell line A129 was used as control.
Briefly, cells were plated in 96 well dishes 24 hours prior to compound addition. The assay was terminated with the addition of cold TCA to a final concentration of 10% and the plates were incubated for one hour at 4° C. The plates were then washed 5 times with water and 100 μl of a Sulforhodamine B solution ([…]) was added to each well. The plate was then incubated for 10 minutes at room temperature before removal of unbound dye by washing with 1% acetic acid. The bound dye was solubilized with 10 mM Trizma base and the absorbance read at OD570.

The mark [3] stands for this setting: satraplatin 35 mg/kg/day po, Exp. B.
Setting [4] is: satraplatin 40 mg/kg/day po, Exp. B.
The mark [5] stands for this setting: satraplatin 50 mg/kg/day po, Exp. A.
[6] abbreviates: docetaxel 25 mg/kg iv d7, d14, of 10 animals.
Setting [7] is: paclitaxel 25 mg/kg/day iv, Exp. A.
Setting [8] is: paclitaxel 25 mg/kg/day iv, Exp. B.
The mark [9] stands for this setting: paclitaxel 40 mg/kg/day iv, Exp. A.
[10] abbreviates: paclitaxel 40 mg/kg/day iv, Exp. B.

Take `CC(=O)[O][Pt]([NH2])([Cl])([Cl])([NH]C1CCCCC1)[O]C(C)=O` [Satraplatin, satraplatin]: the “Max % BW loss” value in data set [1] (setting [3]) was determined as 12%; in data set [1] (setting [4]), 16%; in data set [1] (setting [5]) it was 26%; in data set [2] (satraplatin 25 mg/kg po d8-12, d15-19), 6.1%; in data set [2] (satraplatin 35 mg/kg po d8-12, d15-19), 9.7%. Also, the results for the Toxic deaths/total in data set [1] (setting [3]), in data set [1] (setting [4]) and in data set [1] (setting [5]) were 0/10, 4/10 and 9/10, respectively. The “Toxic Deaths” value in data set [2] (satraplatin 25 mg/kg po d8-12, d15-19, of 10 animals) is 0; in data set [2] (satraplatin 35 mg/kg po d8-12, d15-19, of 10 animals) it was 1.

With `N.N.[Cl][Pt][Cl]` [Cisplatin, cisplatin], the IC50 (as a rule, the point on the concentration scale where inhibition reaches its midpoint) was found to be 0.23 µM with A129; 15.1 µM in the data set with A129 cp80 (48 hours, SRB assay, mean and standard deviation). The “RR (relative resistance)” value in the data set with A129 cp80 (A129 cp80 versus A129) is on record as 80 +/− 25.

Regarding `CC(=O)O[C@@]12CO[C@@H]1C[C@H](O)[C@@]1(C)C(=O)[C@H](O)C3=C(C)[C@@H](OC(=O)[C@H](O)[C@@H](NC(=O)OC(C)(C)C)c4ccccc4)C[C@@](O)([C@@H](OC(=O)c4ccccc4)[C@H]21)C3(C)C` [Docetaxel, N-debenzoyl-N-tert-butoxycarbonyl-10-deacetyl paclitaxel], the “LCK (Td = 2.7)” value in data set [2] (docetaxel 25 mg/kg iv d7, d14) turned out to be 0.76. Moreover, the “Max TGI (d)” value in data set [2] (docetaxel 25 mg/kg iv d7, d14, maximum observed on day 13) is 64.7 (13) %. In data set [2] (setting [6]), the “CR (number of animals with complete tumor regression)” value was found to be 0, the Cure stood at 0, the “PR (number of animals with partial tumor regression)” value is 0 and the “Toxic Deaths” value is 0.

With `CC(=O)O[C@H]1C(=O)[C@@]2(C)[C@H]([C@H](OC(=O)c3ccccc3)[C@]3(O)C[C@H](OC(=O)[C@H](O)[C@@H](NC(=O)c4ccccc4)c4ccccc4)C(C)=C1C3(C)C)[C@]1(OC(C)=O)CO[C@@H]1C[C@@H]2O` [Paclitaxel, paclitaxel], the LCK in data set [1] (setting [7]) is recorded as 0.6; in data set [1] (setting [8]) it was 0.7; in data set [1] (setting [9]) it was 0.7; in data set [1] (setting [10]) it was 1.0. Further, the “Max TGI %” value was 56% in data set [1] (setting [7]), 47% in data set [1] (setting [8]), 64% in data set [1] (setting [9]) and 59% in data set [1] (setting [10]). In addition, the Toxic deaths/total in data set [1] (setting [7]), in data set [1] (setting [8]), in data set [1] (setting [9]) and in data set [1] (setting [10]) was 0/10 in each case. Further, the “tumor growth delay equivalent, LCK” value in data set [1] (paclitaxel 40 mg/kg/day, in two experiments) is listed as 0.7-1.0 LCK. The “tolerability and activity as single agent” value in data set [1] (paclitaxel at both doses tested, 25 and 40 mg/kg/day) was “tolerated and active”.
